Test [1] concerns the target T1, recombinant HIV 1 RT wild type (Human immunodeficiency virus type 1 group M subtype B, UniProt P03366). Nature of the test: biochemical. The text has this:
The DNA-polymerase assay is based on a short primer with a specific sequence that is covalently bound to the wells of a 96 well microtiter plate. The reaction mixture contains a single stranded deoxynucleotide template with a part of the sequence complementary to the primer and the four deoxynucleoside triphosphates. Thymidine triphosphate is, however, replaced by 5-bromodeoxyuridine 5′-triphosphate (BrdUTP). The amount of bromodeoxyuridine monophosphate (BrdUMP) incorporated into DNA during the polymerase reaction, is detected with an alkaline phosphatase (Ap) conjugated anti-BrdU monoclonal antibody. An Ap substrate, 4-methylumbelliferyl phosphate, is used for fluorimetric product detection.
The inhibition studies were performed in a modified DNA polymerase assay. The drugs were serially diluted in five steps and 25 μl aliquots were transferred to each well in the microtiter plate, mixed with 100 μl DNA polymerase reaction mixture and the enzyme reaction was initiated by addition of 25 μl enzyme dilution. […] The polymerase reaction was allowed to proceed over-night (16-24 hours at 33° C.). Thereafter the reaction was terminated by a wash of the plate.
The polymerase activity at each inhibitor concentration was recalculated into % of the activity of a control in absence of inhibitor. The results are depicted in FIG. 3.
(§1) The effects of three non-nucleoside inhibitors on indicated recombinant HIV 1 RT were determined according to “Protocol for determination of inhibition of second strand synthesis on variable DNA template” using DNA polymerase γ and Retro DNA polymerase base buffer and “Protocol for determination of inhibition of reverse transcription ” respectively.

For test [2], the target named is T1, recombinant HIV 1 RT wild type. Nature of the test: biochemical. Also on record: The mutated and native forms of RT were isolated as previously described; made in house. The conditions noted are these: IC50 on template prA, RT type wt, first strand synthesis, 2 hours. The procedure: In short, poly(rA) covalently bound to the wells of a 96 well microtiter plate serves as template for the incorporation of 5-bromodeoxyuridine 5′-triphosphate (BrdUTP) during the reverse transcription step at 33° C. The amount of bromodeoxyuridine monophosphate (BrdUMP) incorporated into DNA, is detected with an alkaline phosphatase (Ap) conjugated anti-BrdU monoclonal antibody. An Ap substrate, 4-methylumbelliferyl phosphate, is finally used for fluorimetric detection.
as §1

The target of test [3] is T2, recombinant DNA polymerase III (Staphylococcus aureus, UniProt P0C1P9).
T2 construct: made in house
T2 sequence (P0C1P9 1-1435): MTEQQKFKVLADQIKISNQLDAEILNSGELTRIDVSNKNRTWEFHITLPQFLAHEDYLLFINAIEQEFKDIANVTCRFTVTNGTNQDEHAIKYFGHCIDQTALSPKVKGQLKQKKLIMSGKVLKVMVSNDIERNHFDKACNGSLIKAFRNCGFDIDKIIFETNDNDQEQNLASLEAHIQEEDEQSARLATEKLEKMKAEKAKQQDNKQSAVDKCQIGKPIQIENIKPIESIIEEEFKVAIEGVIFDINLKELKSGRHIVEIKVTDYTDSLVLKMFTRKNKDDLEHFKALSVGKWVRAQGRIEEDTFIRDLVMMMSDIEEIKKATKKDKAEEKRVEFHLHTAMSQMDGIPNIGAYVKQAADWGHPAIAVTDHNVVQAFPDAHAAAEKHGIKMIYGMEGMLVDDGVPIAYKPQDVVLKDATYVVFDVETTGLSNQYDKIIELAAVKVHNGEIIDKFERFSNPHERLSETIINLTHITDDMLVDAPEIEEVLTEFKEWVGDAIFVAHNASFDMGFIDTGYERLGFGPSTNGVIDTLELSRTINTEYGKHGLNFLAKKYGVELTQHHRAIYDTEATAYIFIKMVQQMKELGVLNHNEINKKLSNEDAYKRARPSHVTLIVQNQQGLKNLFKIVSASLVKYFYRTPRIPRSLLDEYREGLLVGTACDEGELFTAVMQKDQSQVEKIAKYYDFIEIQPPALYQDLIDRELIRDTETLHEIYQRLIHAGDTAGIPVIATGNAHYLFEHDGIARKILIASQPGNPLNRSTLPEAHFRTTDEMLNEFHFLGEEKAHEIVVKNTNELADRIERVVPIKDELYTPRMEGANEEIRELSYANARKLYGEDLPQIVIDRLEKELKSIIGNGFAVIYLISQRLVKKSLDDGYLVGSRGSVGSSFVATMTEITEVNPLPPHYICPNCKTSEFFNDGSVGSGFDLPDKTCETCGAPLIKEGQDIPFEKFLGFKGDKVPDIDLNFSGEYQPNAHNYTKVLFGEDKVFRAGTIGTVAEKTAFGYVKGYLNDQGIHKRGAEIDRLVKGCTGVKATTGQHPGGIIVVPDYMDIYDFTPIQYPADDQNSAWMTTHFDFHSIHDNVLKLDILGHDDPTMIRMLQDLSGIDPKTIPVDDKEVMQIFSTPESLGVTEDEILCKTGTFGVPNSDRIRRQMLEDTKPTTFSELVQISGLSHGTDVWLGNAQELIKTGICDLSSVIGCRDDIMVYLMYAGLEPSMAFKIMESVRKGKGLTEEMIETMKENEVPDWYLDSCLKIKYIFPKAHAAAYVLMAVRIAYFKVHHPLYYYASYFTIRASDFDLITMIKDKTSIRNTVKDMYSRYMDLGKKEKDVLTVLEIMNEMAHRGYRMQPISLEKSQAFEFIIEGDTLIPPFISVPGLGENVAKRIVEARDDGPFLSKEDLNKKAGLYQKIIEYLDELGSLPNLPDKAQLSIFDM
The experiment in a line: Inhibition of DNA polymerase III with TMAU on different templates. Format: biochemical. The conditions noted are these: templates (CTGA)6-A12 or (CTG)6-A3; 1.25 ng/well enzyme, one hour, GTP […]. The procedure: DNA polymerase I (E. coli) was purchased from Amersham Bioscience. Recombinant DNA polymerase III from Staphylococus aureus was produced as described (Brown et al 1998). Mammalian DNA polymerase α (calf thymus) and β (human) were purchased from CHIMERx (Milwaukee). DNA polymerase γ was purified from beef heart as described (Pileur et al 2000).
(2-(N-Morpholino)ethanesulfonic acid) (MES) 40 mM pH 6.8, Potassium acetate (KAc) 40 mM, MgCl2 10 mM, spermine 2 mM, polyoxyethylenesorbitan monolaureate (Tween 20) 0.5%(v/v), EDTA 0.1 mM, dithiothreitol 1 mM and bovine serum albumin (BSA) 50 μg/ml.
6-anilinouracils are selective inhibitors of DNA polymerase III from gram-positive bacteria. […] The drug TMAU can be regarded as an analogue to […]. […]

For test [4], the system named is T69S→SS/L210W/T215Y HIV-1 mutant RT. Nature of the test: Inhibition of second strand synthesis on variable DNA template, standard reaction solution versus reaction solution with ATP. Format: biochemical. The conditions noted are these: 4 pg/well RT, 19 hours. The procedure:
The procedure for production of recombinant HIV-1 RTs with AZT specific mutations were similar but the mutations were introduced into the RT-coding region from the HXB2-D isolate.
The DNA polymerase γ and Retro DNA polymerase reaction mixture was reinforced with 3.2 mM ATP and pH was adjusted to 7.1.
The duration of the polymerization reactions was 19 hours. The RT activities obtained were recalculated into % of the activity of the same RT incubated in absence of inhibitor.
Symbols: HIV-1 wild type RT in standard DNA polymerase reaction solution (◯). HIV-1 wild type RT in DNA polymerase reaction solution with ATP (●), T69S→SS/L210W/T215Y HIV-1 mutant RT in standard DNA polymerase reaction solution (⋄),
T69S→SS/L210W/T215Y HIV-1 mutant RT in DNA polymerase reaction solution with ATP(♦).

Like-named read-outs stand apart in the source and are kept apart here.

With `Nc1ncnc2c1ncn2C1CCC(COP(=O)(O)OP(=O)(O)OP(=O)(O)O)O1` (stereo not shown) [ddATP, 2′3′ dideoxyadenosine triphosphate], in test [1], the IC50 came out at 0.08 µM.
In the case of `O=C(O)P(=O)(O)O` [Foscarnet], the IC50 is 0.6 µM in test [2] (RT amount 20 fg), 0.7 µM in test [2] (RT amount 100 fg) and 0.5 µM in test [1].
With `O=c1cc(Nc2ccc3c(c2)CCC3)[nH]c(=O)[nH]1` [TMAU, 6-([3,4-trimethylene]anilino)uracil], the “Inhibitory capacity towards DNA polymerase III” value in test [3] is “varying inhibitory capacity depending on the sequence of the template used”.
For `C[C@@H](Cn1cnc2c(N)ncnc21)OCP(=O)(O)OP(=O)(O)OP(=O)(O)O`, the “Increase of the difference in drug susceptibility between wild type and mutant RT” value in test [4] was “approximately 10 fold”.
For the compound `Nc1ccn(C2CCC(COP(=O)(O)OP(=O)(O)OP(=O)(O)O)O2)c(=O)n1` (stereo not shown) [ddCTP, 2′3′ dideoxy cytidine triphosphate], in test [1], the IC50 turned out to be 0.02 µM.

The record behind these values is patent US7488577B2, “Method for measuring DNA polymerization and applications of the method” (Cavidi Tech AB, priority 2001, dated 2009).
